Publication PMC9916883, “Betaine- and L-Carnitine-Based Ionic Liquids as Solubilising and Stabilising Agents for the Formulation of Antimicrobial Eye Drops Containing Diacerein” (International Journal of Molecular Sciences, 2023)
In brackets after ≈: the same amount, converted by molar mass. Read-outs that look alike come from different tables or passages of the source.

Columns and labels:
[1] = tested on: S. aureus (clinical isolate W4); test: MIC determination (microdilution); format: cell-based, Staphylococcus aureus
Description: (§1) A clinical isolate of S. aureus (W4) and the reference strain of P. aeruginosa ATCC 27853 were used in the study. For the preparation of stock cultures, bacterial strains were grown in Luria–Bertani broth (LB, Oxoid, Basingstoke, Hampshire, UK) until the late-log phase, subdivided into aliquots, and kept frozen at −80 °C until use. Identification and susceptibility testing of the S. aureus W4 strain were performed using MALDI-TOF (Bruker Daltonics, Bremen, Germany) and the BD Phoenix susceptibility testing system (BD, Milan, Italy), respectively.
(§2) The susceptibility of the bacterial strains to each of the tested compounds was assessed in terms of MIC values according to the standard microdilution method (Clinical and Laboratory Standards Institute–CLSI, 2018), with some modifications. Briefly, the bacteria were grown in LB broth until the exponential growth phase and then diluted in the same medium to reach a final density of 5 × 10^6 CFU/mL. A volume of 10 μL of the bacterial suspensions was added to 90 μL of LB in a 96-well plate in the absence (viability control) or presence of the test compound at different concentrations.

S. aureus W4 = test: Biofilm inhibition assay (crystal violet); format: cell-based, Staphylococcus aureus; conditions: 12.5 μg/mL
Description: (§3) After overnight growth in LB, cultures of P. aeruginosa ATCC 27853 and S. aureus W4 were diluted 1:100 in LB or in 50% tryptone soy broth (TSB, Oxoid) supplemented with 0.25% glucose (Sigma), respectively. The bacterial suspensions were dispensed into flat-bottomed polystyrene 96-well microplates (Corning Costar, Lowell, MA, USA) in the presence of sub-MIC concentrations of Rhe and DIA (3.12, 6.25, and 12.5 μg/mL). A sample containing 0.8 DMSO % (corresponding to the highest concentration of DMSO tested) was used as a control. The microplates were incubated statically at 37 °C for 24 h, and the biofilm biomass was estimated by CV (Sigma-Aldrich) staining assay, as previously described.

[2] = tested on: BALB/3T3 clone A31 fibroblast cells; test: Cytotoxicity screening (WST-1); format: cell-based, murine; conditions: Mus musculus, 4 h incubation, read-out: IC50 of cell viability
Description: BALB/3T3 clone A31 fibroblast cells were grown in Dulbecco’s Modified Eagle Medium (DMEM), supplemented with 2 mM L-glutamine, 1% penicillin/streptomycin, and 10% bovine calf serum. Cells were grown in a CO2 incubator (Heracell 150i series) at 37 °C and 5% CO2, with cells sub-cultured at 80–90% confluency. The cell monolayers were rinsed with PBS and treated with trypsin–EDTA to detach the cells before their resuspension in fresh media. A subconfluent monolayer of BALB/3T3 clone A31 fibroblast cells was trypsinised, centrifuged at 1000 rpm for 5 min, resuspended in growth medium, and counted.
A cytotoxicity screening was carried out for both ILs (range […]), as well as DIA and Rhe (0.5–200 mg/mL). Briefly, BALB/3T3 clone A31 fibroblast cells were seeded in each well of 96-well plates at a seeding density of 6 × 10^3 cells/well for 24 h, until 60–70% confluence was reached. After 24 h, the medium was then removed from each well and replaced with DMEM containing the samples.
After 4 h of incubation, the media were removed, replaced with fresh medium containing 10% WST-1 reagent solution, and maintained for 4 h at 37° C with 5% CO2. Afterwards, formazan dye absorbance was quantified at 450 nm with the reference wavelength at 655 nm by using a multilabel reader (BioTek 800/TS, Thermo Scientific).

[3] = Phase solubility study (apparent solubility of DIA and Rhe with ILs or HP-β-CD); format: physicochemical; conditions: 25 °C, aqueous with cosolvent or surfactant or cyclodextrin, thermodynamic from solid, read-out: saturation solubility
Description: The increase in the apparent solubility of both DIA and Rhe in the presence of the ILs was evaluated. Briefly, aqueous solutions of the ILs were prepared in the range of 0–200 mg/mL, and an excess of either DIA or Rhe was added to each vial. The samples were then incubated for 30 min at 25°C, and the undissolved drug was removed by centrifugation at […] for 15 min (Hettich Mikro 120 centrifuge). […] The drug concentration was measured by UV–Vis analysis. The DIA phase solubility study was also compared to the phase solubility study of DIA in the presence of HP-β-CD as a reference solubility/stability-enhancing excipient. […] The complexation K was calculated through Higuchi and Connors’ method, as previously reported.
The size distribution and zeta potential values of the ILs’ aggregates in aqueous solutions were evaluated by using a Zetasizer Nano ZS (Malvern) at 25 °C. The samples were prepared by adding an excess of either DIA or Rhe (5 mg/mL) to the aqueous IL solutions, incubating them for 30 min at 25 °C, and finally removing the excess drugs by centrifugation. […] In contrast, for PB solutions, the solutions were prepared in water, and […] of 100 mM pH 7 phosphate buffer was added per 1 mL of aqueous solution, directly in the cuvette, before the dynamic light scattering (DLS) analysis started. The concentrations of the solubilised drug were determined by UV–Vis analysis.

P. aeruginosa ATCC 27853 [4] = test: MIC determination (microdilution); format: cell-based, Pseudomonas aeruginosa
Description: as §1, §2

P. aeruginosa ATCC 27853 [5] = test: Biofilm inhibition assay (crystal violet); format: cell-based, Pseudomonas aeruginosa; conditions: any of the concentrations tested (3.12, 6.25, 12.5 μg/mL)
Description: as §3

[6] = tested on: murine fibroblast NIH 3T3 cells; set-up: method as in PMID 20302969, doi:10.1039/c0gc00813c; conditions: ref [29],[30]; cited from earlier work

| Molecule | MIC ([1]; Staphylococcus aureus, planktonic cells, 24 h, 37 °C) | antibacterial effect ([1]; in words (discussion)) | biofilm formation (CV staining, OD 570 nm) (S. aureus W4) | IC50 [2] | solubility at 30 min ([3]; in Bet6 solutions) | solubility at 30 min ([3]; in Carn6 solutions) | MIC (P. aeruginosa ATCC 27853 [4]; Pseudomonas aeruginosa, ATCC27853, planktonic cells, 24 h, 37 °C) | antibacterial effect (P. aeruginosa ATCC 27853 [4]; in words (discussion)) | biofilm formation (CV staining, OD 570 nm), difference vs control (P. aeruginosa ATCC 27853 [5]) | IC50 [6] |
| --- | --- | --- | --- | --- | --- | --- | --- | --- | --- | --- |
| O=C(O)c1cc(O)c2c(c1)C(=O)c1cccc(O)c1C2=O [Rhe, rhein] | 50 µg/mL (≈ 176 µM) | exert antibacterial effects | statistically significant reduction in biofilm formation | 6.7 µg/mL (≈ 23.6 µM) | 220 µg/mL (≈ 774 µM) | 130 µg/mL (≈ 457 µM) | > 50 µg/mL | inactive | not statistically significant | – |
| benzalkonium chloride [Bak] | – | – | – | – | – | – | – | – | – | 9.4 µg/mL |
